Results published in patent US10035799B2, “COMT inhibiting methods and compositions” (Lieber Institute for Brain Development, priority 2015, dated 2018).

Legend:
[1] = Russ, et al. 1999; cited from earlier work
[2] = target: T1, aromatic amino acid decarboxylase (AAAD) (Homo sapiens, UniProt P20711); conditions: given with L-DOPA; Nutt, Woodward et al. 1985; cited from earlier work
T1 sequence (P20711 1-480): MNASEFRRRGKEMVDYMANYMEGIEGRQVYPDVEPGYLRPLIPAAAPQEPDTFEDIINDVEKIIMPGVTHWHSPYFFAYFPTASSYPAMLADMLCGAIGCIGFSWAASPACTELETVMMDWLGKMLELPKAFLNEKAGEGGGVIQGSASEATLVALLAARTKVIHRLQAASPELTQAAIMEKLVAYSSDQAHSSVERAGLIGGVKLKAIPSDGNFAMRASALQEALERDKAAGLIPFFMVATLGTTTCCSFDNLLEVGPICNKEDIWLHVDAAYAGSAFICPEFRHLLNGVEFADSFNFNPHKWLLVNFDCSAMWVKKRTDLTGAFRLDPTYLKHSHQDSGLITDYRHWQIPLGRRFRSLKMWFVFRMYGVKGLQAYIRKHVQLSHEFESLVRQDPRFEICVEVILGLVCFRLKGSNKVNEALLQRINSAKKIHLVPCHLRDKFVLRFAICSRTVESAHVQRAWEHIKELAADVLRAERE

[3] = Nutt and Fellman 1984; cited from earlier work
[4] = clinical use; Olanow and Watkins 2007; cited from earlier work
[5] = target: T2, catechol-O-methyltransferase (COMT) (Homo sapiens, UniProt P21964); assay: COMT inhibition assay (HTRF, production of S-adenosyl homocysteine); type: biochemical; conditions: recombinant human COMT, HTRF SAH production; MB-COMT or S-COMT not stated for Table 1
T2 construct: M51A variant) was expressed in HEK 293F cells
T2 sequence (P21964 52-271 limits assumed): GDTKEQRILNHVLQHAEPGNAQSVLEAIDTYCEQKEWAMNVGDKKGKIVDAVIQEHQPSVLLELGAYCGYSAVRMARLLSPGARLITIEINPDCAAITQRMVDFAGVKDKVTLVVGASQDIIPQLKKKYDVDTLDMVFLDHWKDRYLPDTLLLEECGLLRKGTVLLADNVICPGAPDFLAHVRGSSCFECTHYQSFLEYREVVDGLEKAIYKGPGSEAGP
Procedure, shortened: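 SAH formed from SAM (20 μM) measured by HTRF with SAH standard curve; pIC50 from 4-parameter fit. MB-COMT (M51A, HEK293F membranes, 62 ng/well): 1.5 μM dopamine, 40 min, 37° C.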

CCN(CC)C(=O)/C(C#N)=C/c1cc(O)c(O)c([N+](=O)[O-])c1 [entacapone]
brain penetration [1]: negligible

C[C@@](Cc1ccc(O)c(O)c1)(NN)C(=O)O [Carbidopa]
reduction of the efficacious L-DOPA dose [2]: 60-80%

N[C@@H](Cc1ccc(O)c(O)c1)C(=O)O [L-DOPA]
percentage of exogenously administered L-DOPA that reaches the brain [3]: ~1%

Cc1ccc(C(=O)c2cc(O)c(O)c([N+](=O)[O-])c2)cc1 [tolcapone]
brain penetration [1]: low but measurable
liver injury [4]: serious liver injury, including three deaths

Cc1ccc(CS(=O)(=O)c2ccc(O)c3ncccc23)cc1 [Example 32, 5-(p-tolylmethylsulfonyl)quinolin-8-ol]
Activity range (pIC50, COMT inhibition) [5]: ++ (a pIC50 of from about great than 6 to 7)

O=S(=O)(c1ccc(O)c2ncccc12)N1CCN(c2ccc(F)cc2)CC1 [Example 96, 5-[4-(4-fluorophenyl)piperazin-1-yl]sulfonylquinolin-8-ol]
Activity range (pIC50, COMT inhibition) [5]: ++ (a pIC50 of from about great than 6 to 7)

C[C@H](c1ccccc1)N(C)S(=O)(=O)c1cc(F)c(O)c2ncccc12 [Example 123, 7-fluoro-8-hydroxy-N-methyl-N-[(1R)-1-phenylethyl]quinoline-5-sulfonamide]
Activity range (pIC50, COMT inhibition) [5]: +++ (a pIC50 of above about 7)

O=S(=O)(c1cc(F)c(O)c2ncccc12)N1CCCC1 [Example 113, 7-fluoro-5-pyrrolidin-1-ylsulfonyl-quinolin-8-ol]
Activity range (pIC50, COMT inhibition) [5]: +++ (a pIC50 of above about 7)

O=S(=O)(c1ccc(O)c2ncccc12)C1CCCC1 [Example 31, 5-cyclopentylsulfonylquinolin-8-ol]
Activity range (pIC50, COMT inhibition) [5]: +++ (a pIC50 of above about 7)

Cc1ccc(S(=O)(=O)c2ccc(O)c3ncccc23)cc1C [Example 3, 5-(3,4-dimethylphenyl)sulfonylquinolin-8-ol]
Activity range (pIC50, COMT inhibition) [5]: +++ (a pIC50 of above about 7)

O=S(=O)(c1ccc(O)c2ncccc12)N1CC(Oc2ccc(OC(F)(F)F)cc2)C1 [Example 99, 5-[3-[4-(trifluoromethoxy)phenoxy]azetidin-1-yl]sulfonylquinolin-8-ol]
Activity range (pIC50, COMT inhibition) [5]: ++ (a pIC50 of from about great than 6 to 7)

CCN(Cc1ccncc1)S(=O)(=O)c1ccc(O)c2ncccc12 [Example 66, N-ethyl-8-hydroxy-N-(4-pyridylmethyl)quinoline-5-sulfonamide]
Activity range (pIC50, COMT inhibition) [5]: ++ (a pIC50 of from about great than 6 to 7)
